Data as given in PMC10178127, “Immunomodulatory Effects of the Pea Defensin Psd1 in the Caco-2/Immune Cells Co-Culture upon Candida albicans Infection” (International Journal of Molecular Sciences, 2023).

Test system: Caco-2 polarized monolayer
Assay: Multiplex xMAP cytokine production, Caco-2 monolayer without immune cells
Type: cell-based, human
Conditions: 24 h; for EGF level / Eotaxin level / FGF-2 level / FLT-3L level / Fractalkine level / G-CSF level / GM-CSF level / GROa level / IFNa2 level / IFNg level / IL-1RA level / IL-1a level / IL-1b level / IL-2 level / IL-3 level / IL-4 level / IL-5 level / IL-6 level / IL-7 level / IL-8 level / IL-9 level / IL-10 level / IL-12 (p40) level / IL-12 (p70) level / IL-13 level / IL-15 level / IL-17A level / IL-17E/IL-25 level / IL-17F level / IL-18 level / IL-22 level / IL-27 level / IP-10 level / M-GSF level / MCP-1 level / MCP-3 level / MDC level / MIG level / MIP-1a level / MIP-1b level / PDGF-AA level / PDGF-AB/BB level / RANTES level / TGF-a level / TNFa level / TNFb level / VEGFa level / sCD40L level: 2 µM apical, basolateral medium
Procedure: To estimate the impact of Candida albicans on cytokine production by intestinal-like epithelium, Caco-2 polarized monolayer without immune cells was used. […] A decrease in concentrations of IL-13 and IL-18 was also observed.
For growing cells, mimicking epithelial barriers in vitro, Caco-2 cells were seeded onto 24-well polycarbonate Millicell cell culture inserts (0.4 μm, 0.6 cm^2 surface area) (Millipore, Burlington, MA, USA), precoated with 0.2% bovine gelatin (Sigma-Aldrich), at a density of 2.5 × 10^5 cells/cm^2. The cells were grown for 21 days in a complete DMEM/F12 (1:1) medium with re-feeding every 2–3 days with a fresh complete medium. The integrity of the Caco-2 cell monolayer was checked by measuring the transepithelial electrical resistance (TEER) using a Millicell-ERS Voltohmmeter (Millipore). Only cell monolayers with TEER > 400 Ωcm^2 (after subtracting TEER in blank inserts without Caco-2 cells) were used in transport across epithelial monolayer and cytokine production experiments.
Monocytes and moDCs were seeded into the wells of 48- and 24-well plates in the complete RPMI-1640 medium supplemented with 10% human AB serum (HABS, Capricorn Scientific) without antibiotics 24 h prior to the experiment, and kept in a humidified CO2-incubator (5% CO2, 37 °C). After 24 h, the medium in the wells of the 48-well plate was replaced by fresh complete RPMI-1640 medium with 10% HABS, supplemented with 2 µM of Psd1 for the sample wells or fresh medium alone for the control wells. Medium in the wells of the 24-well plate was replaced by fresh complete RPMI-1640 medium with 10% human serum without antibiotics. Then, Millicell inserts with Caco-2 monolayers with TEER > 400 Ωcm^2 were placed into the wells of the 24-well plate, containing monocytes or moDCs. Wells with Millicell inserts with Caco-2 monolayers without immune cells were used as control wells. Medium in apical chambers of Millicell inserts was replaced by fresh complete RPMI-1640 with 10% human serum medium containing Psd1 at the final concentration of 2 µM or Candida albicans at the concentration of 5 × 10^4 cells/mL or yeast cells together with the pea defensin at the same concentration. Fresh complete RPMI-1640 medium only with 10% human serum and without antibiotics was used in control wells. Plates were kept in CO2-incubator (5% CO2, 37 °C) for another 24 h. Culture supernatants from the wells of the 48-well plate and basolateral chambers of the 24-well plate were collected and stored at −70 °C degrees less than one month prior to the analytes assessment.
The following 48 analytes were measured at a protein level by multiplex xMAP technology using the MILLIPLEX Human Cytokine/Chemokine/Growth Factor Panel A kit (HCYTA-60K-PX48, Merck, Darmstadt, Germany): sCD40L, EGF, Eotaxin-1/CCL11, FGF-2/FGF-basic, Flt-3 ligand, Fractalkine/CX3CL1, G-CSF, GM-CSF, GROα/CXCL1, IFNα2, IFNγ, IL-1α, IL-1β, IL-1RA, IL-2, IL-3, IL-4, IL-5, IL-6, IL-7, IL-8/CXCL8, IL-9, IL-10, IL-12(p40), IL-12(p70), IL-13, IL-15, IL-17A/CTLA8, IL-17E/IL-25, IL-17F, IL-18, IL-22, IL-27, IP-10/CXCL10, MCP-1/CCL2, MCP-3/CCL7, M-CSF, MDC/CCL22, MIG/CXCL9, MIP-1α/CCL3, MIP-1β/CCL4, PDGF-AA, PDGF-AB/BB, RANTES/CCL5, TGFα, TNFα, TNFβ, and VEGF-A. Multiplex-based assay read-out was performed using the MAGPIX system (Merck) with the xPONENT 4.2 software (Merck) in accordance with the manufacturer’s instruction with overnight incubation of the samples with primary antibodies. A final analysis was carried out with the MILLIPLEX Analyst v5.1 software (Merck). Measurements were performed twice for each sample. Release of the analytes in control and experimental samples was compared with an unpaired two-sample t-test using GraphPad Prism v.8.0.1 (GraphPad Software, Inc., San Diego, CA, USA). The p values ≤ 0.05 were considered significant.

With “Psd1: pea defensin from Pisum sativum (UNIPROT P81929), recombinant peptide overexpressed in Escherichia coli (KTCEHLADTYRGVCFTNASCDDHCKNKAHLISGTCHNWKCFCTQNC; UniProt P81929 1-46, looked up)” the EGF level (Caco-2+Candida+Psd1) was 1.19 pg/mL, the Eotaxin level (Caco-2+Candida+Psd1) was <3.52↓ pg/ml and the FGF-2 level (Caco-2+Candida+Psd1) was <13.35↓ pg/ml. For the same substance, the FLT-3L level (Caco-2+Candida+Psd1) was <0.40↓ pg/ml, the Fractalkine level (Caco-2+Candida+Psd1) was <17.82↓ pg/ml and the G-CSF level (Caco-2+Candida+Psd1) was <3.01↓ pg/ml. For the same substance, the GM-CSF level (Caco-2+Candida+Psd1) was <0.89↓ pg/ml, the GROa level (Caco-2+Candida+Psd1) was 34.82 pg/mL and the IFNa2 level (Caco-2+Candida+Psd1) was <4.56↓ pg/ml. The IFNg level (Caco-2+Candida+Psd1) was <2.23↓ pg/ml, the IL-1RA level (Caco-2+Candida+Psd1) was <0.66↓ pg/ml and the IL-1a level (Caco-2+Candida+Psd1) was <3.42↓ pg/ml. For the same substance, the IL-1b level (Caco-2+Candida+Psd1) was <2.26↓ pg/ml, the IL-2 level (Caco-2+Candida+Psd1) was <0.95↓ pg/ml and the IL-3 level (Caco-2+Candida+Psd1) was <0.60↓ pg/ml. The IL-4 level (Caco-2+Candida+Psd1) was <1.14↓ pg/ml, the IL-5 level (Caco-2+Candida+Psd1) was <0.30↓ pg/ml and the IL-6 level (Caco-2+Candida+Psd1) was 0.67 pg/mL. For the same substance, the IL-7 level (Caco-2+Candida+Psd1) was <0.38↓ pg/ml, the IL-8 level (Caco-2+Candida+Psd1) was 4.2 pg/mL and the IL-9 level (Caco-2+Candida+Psd1) was <2.08↓ pg/ml. The IL-10 level (Caco-2+Candida+Psd1) was <1.24↓ pg/ml, the “IL-12 (p40) level” value (Caco-2+Candida+Psd1) was <3.56↓ pg/ml and the “IL-12 (p70) level” value (Caco-2+Candida+Psd1) was <1.68↓ pg/ml. For the same substance, the IL-13 level (Caco-2+Candida+Psd1) was <2.61↓ pg/ml, the IL-15 level (Caco-2+Candida+Psd1) was <1.43↓ pg/ml and the IL-17A level (Caco-2+Candida+Psd1) was <2.09↓ pg/ml. For the same substance, the IL-17E/IL-25 level (Caco-2+Candida+Psd1) was <18.85↓ pg/ml, the IL-17F level (Caco-2+Candida+Psd1) was <19.03↓ pg/ml and the IL-18 level (Caco-2+Candida+Psd1) was 2.95 pg/mL. For the same substance, the IL-22 level (Caco-2+Candida+Psd1) was <5.23↓ pg/ml, the IL-27 level (Caco-2+Candida+Psd1) was <11.43↓ pg/ml and the IP-10 level (Caco-2+Candida+Psd1) was 5.8 pg/mL. For the same substance, the M-GSF level (Caco-2+Candida+Psd1) was <24.28↓ pg/ml, the MCP-1 level (Caco-2+Candida+Psd1) was <2.03↓ pg/ml and the MCP-3 level (Caco-2+Candida+Psd1) was <4.18↓ pg/ml. The MDC level (Caco-2+Candida+Psd1) was <0.30↓ pg/ml, the MIG level (Caco-2+Candida+Psd1) was <3.51↓ pg/ml and the MIP-1a level (Caco-2+Candida+Psd1) was <1.88↓ pg/ml. The MIP-1b level (Caco-2+Candida+Psd1) was <0.16↓ pg/ml, the PDGF-AA level (Caco-2+Candida+Psd1) was 160.02 pg/mL and the PDGF-AB/BB level (Caco-2+Candida+Psd1) was <5.84↓ pg/ml. The RANTES level (Caco-2+Candida+Psd1) was <0.62↓ pg/ml, the TGF-a level (Caco-2+Candida+Psd1) was <0.63↓ pg/ml and the TNFa level (Caco-2+Candida+Psd1) was <3.89↓ pg/ml. The TNFb level (Caco-2+Candida+Psd1) was 1.64 pg/mL, the VEGFa level (Caco-2+Candida+Psd1) was 197.1 pg/mL and the sCD40L level (Caco-2+Candida+Psd1) was <4.88↓ pg/ml. For the same substance, the EGF level (Caco-2+Psd1) was 1.19 pg/mL, the Eotaxin level (Caco-2+Psd1) was <3.52↓ pg/ml and the FGF-2 level (Caco-2+Psd1) was <13.35↓ pg/ml. For the same substance, the FLT-3L level (Caco-2+Psd1) was 0.46 pg/mL, the Fractalkine level (Caco-2+Psd1) was <17.82↓ pg/ml and the G-CSF level (Caco-2+Psd1) was <3.01↓ pg/ml. For the same substance, the GM-CSF level (Caco-2+Psd1) was <0.89↓ pg/ml, the GROa level (Caco-2+Psd1) was 27.77 pg/mL and the IFNa2 level (Caco-2+Psd1) was <4.56↓ pg/ml. For the same substance, the IFNg level (Caco-2+Psd1) was <2.23↓ pg/ml, the IL-1RA level (Caco-2+Psd1) was <0.66↓ pg/ml and the IL-1a level (Caco-2+Psd1) was 3.99 pg/mL. The IL-1b level (Caco-2+Psd1) was <2.26↓ pg/ml, the IL-2 level (Caco-2+Psd1) was <0.95↓ pg/ml and the IL-3 level (Caco-2+Psd1) was <0.60↓ pg/ml. The IL-4 level (Caco-2+Psd1) was 2.07 pg/mL, the IL-5 level (Caco-2+Psd1) was <0.30↓ pg/ml and the IL-6 level (Caco-2+Psd1) was 2.29 pg/mL. For the same substance, the IL-7 level (Caco-2+Psd1) was <0.38↓ pg/ml, the IL-8 level (Caco-2+Psd1) was 11.44 pg/mL and the IL-9 level (Caco-2+Psd1) was <2.08↓ pg/ml. For the same substance, the IL-10 level (Caco-2+Psd1) was <1.24↓ pg/ml, the “IL-12 (p40) level” value (Caco-2+Psd1) was <3.56↓ pg/ml and the “IL-12 (p70) level” value (Caco-2+Psd1) was <1.68↓ pg/ml. The IL-13 level (Caco-2+Psd1) was 6.35 pg/mL, the IL-15 level (Caco-2+Psd1) was <1.43↓ pg/ml and the IL-17A level (Caco-2+Psd1) was <2.09↓ pg/ml. For the same substance, the IL-17E/IL-25 level (Caco-2+Psd1) was <18.85↓ pg/ml, the IL-17F level (Caco-2+Psd1) was <19.03↓ pg/ml and the IL-18 level (Caco-2+Psd1) was 3.42 pg/mL. The IL-22 level (Caco-2+Psd1) was <5.23↓ pg/ml, the IL-27 level (Caco-2+Psd1) was <11.43↓ pg/ml and the IP-10 level (Caco-2+Psd1) was 7.04 pg/mL. For the same substance, the M-GSF level (Caco-2+Psd1) was <24.28↓ pg/ml, the MCP-1 level (Caco-2+Psd1) was <2.03↓ pg/ml and the MCP-3 level (Caco-2+Psd1) was <4.18↓ pg/ml. For the same substance, the MDC level (Caco-2+Psd1) was <0.30↓ pg/ml, the MIG level (Caco-2+Psd1) was <3.51↓ pg/ml and the MIP-1a level (Caco-2+Psd1) was <1.88↓ pg/ml. For the same substance, the MIP-1b level (Caco-2+Psd1) was <0.16↓ pg/ml, the PDGF-AA level (Caco-2+Psd1) was 347.49 pg/mL and the PDGF-AB/BB level (Caco-2+Psd1) was <5.84↓ pg/ml. The RANTES level (Caco-2+Psd1) was <0.62↓ pg/ml, the TGF-a level (Caco-2+Psd1) was 0.67 pg/mL and the TNFa level (Caco-2+Psd1) was <3.89↓ pg/ml. The TNFb level (Caco-2+Psd1) was 5.02 pg/mL, the VEGFa level (Caco-2+Psd1) was 413.86 pg/mL and the sCD40L level (Caco-2+Psd1) was <4.88↓ pg/ml. For the same substance, the “IL-6, IL-8/CXCL8, and IP-10 production” value (Caco-2, 2 μM apical) was “increase” and the “direct immunomodulatory action on epithelial cells” value (Caco-2, 2 μM apical) was “no significant direct immunomodulatory action”.
